PMC9231011, “Irreversible Antagonists for the Adenosine A2B Receptor” (Molecules, 2022)
Numbering of substitutions follows the chain as printed.

What was measured:
hA1 = molecular target: hA1; design: method as in PMID 30835463, PMID 31646479; conditions: Figure 1; cited from earlier work
A2BAR = molecular target: T1, A2BAR (Homo sapiens, UniProt P29275); design: purchased Perkin Elmer ES-013-M400UA; method as in PMID 19569717; conditions: wt A2BAR; read-out: KD of [3H]PSB-603; cited from earlier work
T1 sequence (P29275 1-332): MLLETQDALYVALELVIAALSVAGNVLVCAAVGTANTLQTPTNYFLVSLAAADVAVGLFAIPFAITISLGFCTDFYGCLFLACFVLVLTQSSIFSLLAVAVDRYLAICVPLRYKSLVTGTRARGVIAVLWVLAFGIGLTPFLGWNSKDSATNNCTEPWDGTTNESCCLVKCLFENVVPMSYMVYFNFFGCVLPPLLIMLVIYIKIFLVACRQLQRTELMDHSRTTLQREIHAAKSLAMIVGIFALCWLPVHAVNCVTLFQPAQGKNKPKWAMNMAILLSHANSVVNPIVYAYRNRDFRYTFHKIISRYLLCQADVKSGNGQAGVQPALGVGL

hA2B = molecular target: hA2B; design: method as in PMID 30835463, PMID 31646479; conditions: Figure 1; cited from earlier work
hA2A = molecular target: hA2A; design: method as in PMID 30835463, PMID 31646479; conditions: Figure 1; cited from earlier work
hA3 = molecular target: hA3; design: method as in PMID 30835463, PMID 31646479; conditions: Figure 1; cited from earlier work
[1] = molecular target: T2, mutant human A2BAR (K269^7.32L) (Homo sapiens, UniProt P29275, K269L); assay: Homologous competition binding of PSB-603 vs [3H]PSB-603 at mutant; conditions: K269^7.32L mutant
T2 construct: expressed in transfected cells; host or cells: FreeStyle CHO-S cells, pcDNA3.1(+), transient
T2 sequence (P29275 1-332 K269L): T1 sequence (P29275 1-332) with K269L
Protocol: The human A2AAR, the mutant human A2BAR (K269^7.32L), and the human A3AR were transiently expressed in FreeStyle^TM CHO-S cells using the transfection reagent polyethylenimine (PEI) at a ratio of 1:3 to DNA according to the manufacturer’s guideline. pcDNA3.1(+) was used as the transfection vector containing the cDNA for either the wt ARs or the K269^7.32L mutant A2BAR that was prepared by site-directed mutagenesis with the following primer: forward […], reverse […]. CHO-S cells were grown in FreeStyle^TM CHO Expression Medium supplemented with 8 mM L-glutamine before use and split to 0.5 mio. cells per mL the day before transfection. Twenty-four hours after transfection, cells were spun down by centrifugation for 15 min at 500× g. […]
Binding experiments were performed using 50 mM Tris buffer (pH 7.4) in a total volume of 400 µL for the A1AR, A2AAR, A3AR, and 1000 µL for the A2BAR. […] Non-specific binding was determined in the presence of 10 µM of 2-chloroadenosine, 10 µM of CGS 15943, 10 µM of 8-cyclopently-1,3-dipropylxanthine or 100 µM of (R)-N^6-phenylisopropyadenosine for A1-, A2A-, A2B- and A3ARs, respectively. […] Subsequently, radioactivity was determined using a liquid scintillation counter (Tricarb 2810TR, Perkin Elmer).

| SMILES | Ki (hA1) | Kd (A2BAR) | Ki (hA2B) | Ki (hA2A) | Ki (hA3) | KD of [3H]PSB-603 [1] | Kd [1] |
| --- | --- | --- | --- | --- | --- | --- | --- |
| CCCn1c(=O)[nH]c2nc(-c3ccc(S(=O)(=O)N4CCN(c5ccc(Cl)cc5)CC4)cc3)[nH]c2c1=O [PSB-603] | > 10000 nM | 0.553 ± 0.103 nM | 0.553 nM | > 10000 nM | > 10000 nM | did not alter | 0.292 ± 0.034 nM |
| CCCn1c(=O)[nH]c2nc(-c3ccc(S(=O)(=O)N4CCN(c5ccc(Br)cc5)CC4)cc3)[nH]c2c1=O [PSB-1901] | > 1000 nM | – | 0.0835 nM | > 1000 nM | > 1000 nM | – | – |
| CCn1c(=O)c2c(nc(/C=C/c3ccc(OC)c(OC)c3)n2C)n(CC)c1=O [Istradefylline, istradefylline] | 841 nM | – | > 10000 nM | 26.4 nM | 4470 nM | – | – |
